Source: article PMC314469, “Protein Interaction Networks by Proteome Peptide Scanning” (PLoS Biology, 2004)

Tested on: Myo5 SH3 domain
Assay: SPOT analysis of cellulose-bound peptides (WISE), Myo5 SH3 domain (Dataset S4)
Type: binding, Saccharomyces cerevisiae
Conditions: for The normalized value in BLU units: Myo5 SH3 domain
[1] = SPOT analysis of membrane-synthesized peptides probed with Myo5 SH3 domain, normalized value
[2] = SPOT analysis of cellulose-bound peptides probed with Myo5 SH3 domain, normalized value
[3] = SPOT analysis of cellulose-bound 14-mer yeast proteome peptides, normalized value, mean where the peptide was synthesized more than once
[4] = SPOT analysis of membrane-bound peptides, normalized value (see methods)

Sequence: GNNSRNIPPPPPPP
- The normalized value in BLU units (SPOT analysis, Myo5 SH3) [1]: 10334.3 BLU

Sequence: GPEFWISPDTPLKF
- The normalized value in BLU units (SPOT analysis, Myo5 SH3) [2]: 87.4 BLU

Sequence: GPIIHPGPEPPRYD
- The normalized value in BLU units [3]: 205.1 BLU

Sequence: GPLLLTVPELPEAD
- The normalized value in BLU units [3]: 162.3 BLU

Sequence: GPSQFAPPPPPPGV
- The normalized value in BLU units [3]: 20435.9 BLU

Sequence: GQIDRDKPSEPERT
- The normalized value in BLU units (SPOT analysis, Myo5 SH3) [1]: 100.5 BLU

Sequence: GQQKRFSPSLPSAV
- The normalized value in BLU units [4]: 728.5 BLU

Sequence: GRHLKNIPRIPIFC
- The normalized value in BLU units (SPOT analysis, Myo5 SH3) [1]: 1042.1 BLU

Sequence: GRSLRKRPTSPSIS
- The normalized value in BLU units [4]: 819.6 BLU

Sequence: GSLVKTKPTLPLTK
- The normalized value in BLU units [4]: 421.7 BLU

Sequence: GSQWKNHPDWPFWV
- The normalized value in BLU units [4]: 108.4 BLU

Sequence: GSYIKRTPKIPEKD
- The normalized value in BLU units (SPOT analysis, Myo5 SH3) [1]: 206.2 BLU

Sequence: GTGRRRSPSTPIMP
- The normalized value in BLU units [4]: 921.0 BLU

Sequence: GTRPKILPKIPTGA
- The normalized value in BLU units (SPOT analysis, Myo5 SH3) [1]: 772.9 BLU

Sequence: GTTNRGPPPLPPRA
- The normalized value in BLU units (SPOT analysis, Myo5 SH3) [1]: 39858.8 BLU

Sequence: GTVTKTAPSFPQSS
- The normalized value in BLU units (SPOT analysis, Myo5 SH3) [1]: 261.1 BLU

Sequence: GWEPFSLPKDPKVV
- The normalized value in BLU units (SPOT analysis, Myo5 SH3) [2]: 75.9 BLU

Sequence: GWPVYNYPMQPTTE
- The normalized value in BLU units (SPOT analysis, Myo5 SH3) [2]: 167.9 BLU

Sequence: GWSTYIPPFNPLEI
- The normalized value in BLU units [3]: 113.7 BLU

Sequence: GWVVYPPPPKPSYN
- The normalized value in BLU units (SPOT analysis, Myo5 SH3) [2]: 452.7 BLU

Sequence: GYDEKGNPIPPNNW
- The normalized value in BLU units [3]: 96.0 BLU

Sequence: GYNPKTVPFVPISG
- The normalized value in BLU units [4]: 108.5 BLU

Sequence: HAEAFEDPSIPRIS
- The normalized value in BLU units [3]: 324.6 BLU

Sequence: HATLYWAPVSPLKS
- The normalized value in BLU units [3]: 151.3 BLU

Sequence: HAVLLNPPVAPTAE
- The normalized value in BLU units (SPOT analysis, Myo5 SH3) [2]: 227.5 BLU

Sequence: HAWDMRSPHRPFYS
- The normalized value in BLU units (SPOT analysis, Myo5 SH3) [2]: 822.1 BLU

Sequence: HEASKCFPKAPQAS
- The normalized value in BLU units [4]: 288.6 BLU

Sequence: HEHNYAIPYTPATF
- The normalized value in BLU units [3]: 129.1 BLU

Sequence: HEKLYHNPSLPAQS
- The normalized value in BLU units (SPOT analysis, Myo5 SH3) [2]: 78.1 BLU

Sequence: HELVKSDPHFPYGT
- The normalized value in BLU units [4]: 229.2 BLU

Sequence: HEREKALPPIPFTT
- The normalized value in BLU units (SPOT analysis, Myo5 SH3) [1]: 214.6 BLU

Sequence: HEVPKRSPEKPSNP
- The normalized value in BLU units [4]: 171.6 BLU

Sequence: HEYNLALPKFPILF
- The normalized value in BLU units [3]: 146.8 BLU

Sequence: HFLAYTNPRAPGKL
- The normalized value in BLU units (SPOT analysis, Myo5 SH3) [2]: 111.7 BLU

Sequence: HFLCLDPPIDPNNL
- The normalized value in BLU units [3]: 122.0 BLU

Sequence: HFNDLQSPAQPQQS
- The normalized value in BLU units (SPOT analysis, Myo5 SH3) [2]: 92.5 BLU

Sequence: HFNTKKIPELPSQF
- The normalized value in BLU units [4]: 466.9 BLU

Sequence: HFPSRSQPSDPKLQ
- The normalized value in BLU units (SPOT analysis, Myo5 SH3) [1]: 257.5 BLU

Sequence: HFYEYVYPSLPFIE
- The normalized value in BLU units (SPOT analysis, Myo5 SH3) [2]: 152.0 BLU

Sequence: HICDKMNPASPQYF
- The normalized value in BLU units [4]: 159.1 BLU

Sequence: HILEKYSPFDPCGR
- The normalized value in BLU units [4]: 166.2 BLU

Sequence: HKFVKSSPVVPFDD
- The normalized value in BLU units (SPOT analysis, Myo5 SH3) [1]: 150.9 BLU

Sequence: HLARYIFPPNPVFH
- The normalized value in BLU units (SPOT analysis, Myo5 SH3) [2]: 279.4 BLU

Sequence: HLDSFSPPFSPSTT
- The normalized value in BLU units [3]: 120.7 BLU

Sequence: HLFHLTTPQDPRLL
- The normalized value in BLU units [3]: 245.7 BLU

Sequence: HLLGKEGPSAPNPS
- The normalized value in BLU units [4]: 124.5 BLU

Sequence: HLTDLSPPGTPPTM
- The normalized value in BLU units (SPOT analysis, Myo5 SH3) [2]: 260.8 BLU

Sequence: HLVRKVAPTKPMYC
- The normalized value in BLU units (SPOT analysis, Myo5 SH3) [1]: 477.5 BLU

Sequence: HLVVWNPPILPQHE
- The normalized value in BLU units [3]: 117.9 BLU

Sequence: HNAAKPIPHVPQAS
- The normalized value in BLU units [3]: 62.3 BLU

Sequence: HPEYLSLPFEPYCF
- The normalized value in BLU units [3]: 212.9 BLU

Sequence: HPHPHPHPHTPTHT
- The normalized value in BLU units (SPOT analysis, Myo5 SH3) [2]: 238.0 BLU

Sequence: HPIHLQPPVPPVYK
- The normalized value in BLU units [3]: 317.7 BLU

Sequence: HPSGLNSPKLPPLP
- The normalized value in BLU units (SPOT analysis, Myo5 SH3) [2]: 456.8 BLU

Sequence: HPYMMVYPMSPPPP
- The normalized value in BLU units (SPOT analysis, Myo5 SH3) [2]: 562.8 BLU

Sequence: HRLFKCTPGLPKLW
- The normalized value in BLU units [4]: 266.0 BLU

Sequence: HSTPKPLPPVPALS
- The normalized value in BLU units (SPOT analysis, Myo5 SH3) [1]: 143.5 BLU

Sequence: HTIPKSGPIVPYVL
- The normalized value in BLU units (SPOT analysis, Myo5 SH3) [1]: 163.7 BLU

Sequence: IAECLGVPWEPVDL
- The normalized value in BLU units (SPOT analysis, Myo5 SH3) [2]: 142.9 BLU

Sequence: IAEWKNDPNNPNFE
- The normalized value in BLU units [4]: 91.1 BLU

Sequence: IAGMLMVPESPRFL
- The normalized value in BLU units [3]: 255.1 BLU

Sequence: IAGQRTFPEDPNYP
- The normalized value in BLU units (SPOT analysis, Myo5 SH3) [1]: 171.7 BLU

Sequence: IAKLKRKPVVPRLK
- The normalized value in BLU units [4]: 888.5 BLU

Sequence: IAKPYVLPFFPLYA
- The normalized value in BLU units [3]: 246.9 BLU

Sequence: IARPLSVPGSPKVR
- The normalized value in BLU units (SPOT analysis, Myo5 SH3) [2]: 382.9 BLU

Sequence: IARSFTIPFLPKIP
- The normalized value in BLU units (SPOT analysis, Myo5 SH3) [2]: 204.5 BLU

Sequence: IATMYPIPAYPDLL
- The normalized value in BLU units (SPOT analysis, Myo5 SH3) [2]: 96.9 BLU

Sequence: IAVTRSIPRGPDKN
- The normalized value in BLU units [4]: 157.9 BLU

Sequence: IDIPRTNPHIPLYQ
- The normalized value in BLU units [4]: 139.2 BLU

Sequence: IDKSKLSPRFPELK
- The normalized value in BLU units [4]: 233.0 BLU

Sequence: IEEGHLDPEAPDKL
- The normalized value in BLU units [3]: 84.8 BLU
